Measured values as given in publication PMC11483813, “Bombesin-Targeted Delivery of β-Carboline-Based Ir(III) and Ru(II) Photosensitizers for a Selective Photodynamic Therapy of Prostate Cancer” (Inorganic Chemistry, 2024).
Several values for one entry are separate records, joined by “and”; a condition that tells them apart may be missing. Identical values can stand only once. Residues, ends and D or L forms follow the SMILES beside them. *: point of attachment. X1 = Cn1c2ccccc2c2ccnc(-c3ccc(/C=C/C(=O)*)cn3)c21

How the values were obtained:
PC-3 cells = assay: Superoxide anion generation (ROS-ID Superoxide Detection Kit); assay type: cell-based, human; settings: IC50,light 4 h, blue light 1 h
Description: The photocytotoxic effects of the complexes and metallopeptides were further elucidated by evaluating their ability to photogenerate ROS at the cellular level. PC-3 cells were treated with the compounds at the respective IC50,light and irradiated with blue light. Subsequently, ROS generation was measured using the 2′,7′-dichlorodihydrofluorescein diacetate (H2DCFDA) probe, which diffuses into cells and is oxidized by ROS to produce a green fluorescent signal. […] Nevertheless, to ascertain the potential contributions of other ROS to the photocytotoxic activity, the capacity of the compounds to undergo type I PDT processes, resulting in the production of superoxide anions (O2^•–), was examined using a specific fluorescent probe that emits an orange signal upon interaction with this radical. Ir-H, Ir-Me, and Ir-BN induced the most significant increase in O2^•– levels, with fold changes of 2.4, 3.5, and 3.4, respectively, compared to control cells. […] These findings highlight the diverse mechanisms of ROS generation employed by these compounds, in particular the Ir complexes, which may contribute to their overall photocytotoxic efficacy.
Figure 9 Intracellular ROS generation. PC-3 cells were treated with the indicated complexes and metallopeptides at their respective IC50,light for 4 h, followed by blue light irradiation for 1 h (460 nm, 24.1 J cm^–2). The elevation of general ROS (A) and superoxide anion (B) levels was determined with specific probes by flow cytometry. Bars represent the mean fold increase (±standard deviation) relative to control untreated cells from three independent experiments. * p < 0.05; ** p < 0.01, *** p < 0.001 compared to control cells.
A similar protocol was followed to evaluate superoxide production using the ROS-ID Superoxide Detection Kit (Enzo Life Sciences) according to the manufacturer’s instructions.

[1] = Emission and photophysical properties; assay type: physicochemical; settings: H2O:DMSO (99:1), 25 °C, nitrogen atmosphere; for λem: λex 405 nm (Ir) or 450 nm (Ru)
Description: The emission spectra of the metal complexes in deoxygenated solutions of H2O:DMSO (99:1, v:v, 10^–5 M) were recorded at 25 °C, using λex of 405 nm for Ir-Me/Ir-H and λex of 450 nm for Ru-Me/Ru-H (Figure 3). […] Moreover, Ir-Me/Ru-Me featured lower emission intensities compared to Ir-H/Ru-H, respectively.
The excited state lifetimes (τ) and the photoluminescence quantum yields were also determined for the new metal complexes (Table 2). […] These values compare well with those of similar complexes and are compatible with a triplet nature for the emissive states. The photoluminescence quantum yields (ΦPL) of Ir(III)/Ru(II) were very low with values ranging from 1.1 to 4.13%.
All synthetic manipulations for Ir(III) and Ru(II) complexes were carried out under an atmosphere of dry, oxygen-free nitrogen using standard Schlenk techniques. The solvents were dried and distilled under a nitrogen atmosphere before use. Elemental analyses were performed with a Thermo Fisher Scientific EA Flash 2000 Elemental Microanalyzer. UV–vis absorption was measured in a Jasco V-750 UV–visible spectrophotometer. Fluorescence steady-state and lifetime measurements were performed in an FLS980 (Edinburgh Instruments) fluorimeter with Xenon Arc Lamp 450 W and TCSPC laser, respectively. Photoluminescence quantum yields was determined by using FLS980 (Edinburgh Instruments) with Xenon Arc Lamp 450 W and Red PMT Sphere as a detector. HR-ESI(+) mass spectra were recorded with an Agilent LC-MS system (1260 Infinity LC/6545 Q-TOF MS spectrometer) using dichloromethane (DCM) as a sample solvent and H2O (0.1% formic acid)/MeOH (0.1% formic acid) and 30:70 as the mobile phase. The experimental m/z values are expressed in Da and were compared with the m/z values for monoisotopic fragments. […] Chemical shift values (δ) are reported in ppm and coupling constants (J) in hertz. The splitting of proton resonances in the reported ^1H NMR data is defined as s = singlet, d = doublet, t = triplet, q = quartet, m = multiplet, and bs = broad singlet. 2D NMR spectra were recorded using standard pulse sequences. All NMR data processing was carried out using MestReNova version 10.0.2. […]
an integrating sphere. For the determination of the luminescence lifetime, the fluorescence decay was measured on a FLS980 spectrofluorometer equipped with a TSCPC laser (Ir(III) complexes: λ ex = 405 nm; Ru(II) complexes: λ ex = 450 nm) and a REDPMT detector. The F980 spectrometer operating software was used to collect and process luminescence lifetime data. […]
Photocatalytic oxidation of NADH. […]
A decrease in the absorption band with maxima at 338 nm was considered to confirm the photocatalytic oxidation of NADH into NAD+. […]
Both phases were then separated. Next, approximately 0.1 mg of the corresponding photosensitizer was dissolved in 1 mL of PBS-saturated n-octanol. Subsequently, 1 mL of octanol-saturated PBS was added, and the mixture was stirred vigorously at room temperature for 24 h. The two layers were separated carefully, and the absorbance of each layer was determined at the respective local maximum located around 425 nm. The log P oct/PBS values were determined as follows: […]

| ΦPL [1] [%] | τ [contribution (%)], first or only component [1] | τ [contribution (%)], second component [1] | λem [1] [nm] | SMILES | O2•– levels, fold change versus control cells (PC-3 cells) [fold] |
| --- | --- | --- | --- | --- | --- |
| – | – | – | – | CC(C)C[C@H](NC(=O)[C@H](CC(C)C)NC(=O)[C@H](Cc1c[nH]cn1)NC(=O)CNC(=O)[C@@H](NC(=O)[C@H](C)NC(=O)[C@H](Cc1c[nH]c2ccccc12)NC(=O)[C@H](CCC(N)=O)NC(=O)[C@H](CC(N)=O)NC(=O)CNC(=O)[C@H](CC(C)C)NC(=O)[C@H](CCCNC(=N)N)NC(=O)[C@H](CCC(N)=O)NC(=O)/C=C/c1ccc(-c2nccc3c4ccccc4n(C)c23)nc1)C(C)C)C(N)=O [Ir-BN] (X1-QRLGNQWAVGHLL-NH2) | 3.4 |
| 4.13 | 23 ns and 23 [51] ns | 145 ns and 145 [49] ns | 651 | Cn1c2ccccc2c2ccnc(-c3ccc(/C=C/C(=O)O)cn3)c21.[Cl-].[Ir+3].[c-]1ccccc1-c1ccccn1.[c-]1ccccc1-c1ccccn1 [Ir-H] | 2.4 |
| 3.50 | 2 ns and 2 [20] ns | 93 ns and 93 [80] ns | 676 | COC(=O)/C=C/c1ccc(-c2nccc3c4ccccc4n(C)c23)nc1.[Cl-].[Ir+3].[c-]1ccccc1-c1ccccn1.[c-]1ccccc1-c1ccccn1 [Ir-Me] | 3.5 |
| 3.13 | 186 ns | – | 688 | Cn1c2ccccc2c2ccnc(-c3ccc(/C=C/C(=O)O)cn3)c21.[Cl-].[Cl-].[Ru+2].c1ccc(-c2ccccn2)nc1.c1ccc(-c2ccccn2)nc1 [Ru-H] | – |
